Test [1] concerns the target T1, Ephrin type-A receptor 1 (Homo sapiens) (UniProt P21709).
T1 sequence (whole entry): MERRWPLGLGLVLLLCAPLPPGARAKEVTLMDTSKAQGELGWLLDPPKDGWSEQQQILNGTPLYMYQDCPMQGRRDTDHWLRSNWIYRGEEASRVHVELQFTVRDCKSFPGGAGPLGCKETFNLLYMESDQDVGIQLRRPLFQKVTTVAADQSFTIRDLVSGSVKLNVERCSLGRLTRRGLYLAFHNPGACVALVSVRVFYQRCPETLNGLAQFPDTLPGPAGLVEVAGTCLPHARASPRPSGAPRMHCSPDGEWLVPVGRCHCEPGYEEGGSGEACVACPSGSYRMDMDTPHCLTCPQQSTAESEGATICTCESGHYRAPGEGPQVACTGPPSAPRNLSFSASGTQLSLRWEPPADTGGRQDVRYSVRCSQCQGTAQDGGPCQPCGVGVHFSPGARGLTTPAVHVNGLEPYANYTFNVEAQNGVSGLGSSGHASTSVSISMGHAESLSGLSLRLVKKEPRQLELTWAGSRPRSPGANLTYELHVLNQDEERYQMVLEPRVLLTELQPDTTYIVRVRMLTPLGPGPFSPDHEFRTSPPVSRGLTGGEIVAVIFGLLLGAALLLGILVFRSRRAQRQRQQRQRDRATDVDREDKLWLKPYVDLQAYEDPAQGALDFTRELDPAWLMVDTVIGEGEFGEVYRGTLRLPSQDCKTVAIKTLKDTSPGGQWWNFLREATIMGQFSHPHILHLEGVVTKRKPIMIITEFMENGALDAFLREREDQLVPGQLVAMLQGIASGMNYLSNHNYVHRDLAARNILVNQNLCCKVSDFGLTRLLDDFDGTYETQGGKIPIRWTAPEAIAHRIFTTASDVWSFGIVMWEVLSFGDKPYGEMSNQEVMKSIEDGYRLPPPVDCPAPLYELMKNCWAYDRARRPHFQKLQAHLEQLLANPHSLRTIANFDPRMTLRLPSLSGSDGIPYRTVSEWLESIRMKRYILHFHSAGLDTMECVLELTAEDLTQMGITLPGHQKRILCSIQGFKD
The test can be described thus: Selectivity interaction (Kinase panel (Z-LYTE Assay)) EUB0001632a EPHA1. Conditions: at 10 µM.

Test [2] concerns the target T2, Serine/threonine-protein kinase Sgk3 (Homo sapiens) (UniProt Q96BR1).
T2 sequence (whole entry): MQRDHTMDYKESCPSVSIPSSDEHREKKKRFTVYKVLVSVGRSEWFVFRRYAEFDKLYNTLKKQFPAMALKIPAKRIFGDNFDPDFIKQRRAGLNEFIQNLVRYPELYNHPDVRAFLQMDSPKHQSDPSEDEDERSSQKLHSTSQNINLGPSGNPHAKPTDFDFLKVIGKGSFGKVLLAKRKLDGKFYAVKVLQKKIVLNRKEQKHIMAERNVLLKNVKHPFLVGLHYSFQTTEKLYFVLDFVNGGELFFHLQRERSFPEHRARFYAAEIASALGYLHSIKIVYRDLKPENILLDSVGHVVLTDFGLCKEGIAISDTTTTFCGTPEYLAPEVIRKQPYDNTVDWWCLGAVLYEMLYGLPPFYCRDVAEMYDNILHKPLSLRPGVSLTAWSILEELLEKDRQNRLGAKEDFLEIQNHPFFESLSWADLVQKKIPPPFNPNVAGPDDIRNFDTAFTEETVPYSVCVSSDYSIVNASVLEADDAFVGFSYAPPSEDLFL
Kind of test: Selectivity interaction (ActivX KiNativ screen (kinase selectivity in THP-1 cell lysates)) EUB0000639a SGK3. Conditions: lysate, at 0.01 µM. In kind it is subcellular.

The target of test [3] is Dual specificity protein kinase CLK3 (Homo sapiens, UniProt P49761). The test can be described thus: Selectivity interaction (KinomeScan (DiscoverX)) EUB0000229b CLK3. Conditions: at 10 µM.
Chain of Dual specificity protein kinase CLK3 (P49761 whole entry, looked up): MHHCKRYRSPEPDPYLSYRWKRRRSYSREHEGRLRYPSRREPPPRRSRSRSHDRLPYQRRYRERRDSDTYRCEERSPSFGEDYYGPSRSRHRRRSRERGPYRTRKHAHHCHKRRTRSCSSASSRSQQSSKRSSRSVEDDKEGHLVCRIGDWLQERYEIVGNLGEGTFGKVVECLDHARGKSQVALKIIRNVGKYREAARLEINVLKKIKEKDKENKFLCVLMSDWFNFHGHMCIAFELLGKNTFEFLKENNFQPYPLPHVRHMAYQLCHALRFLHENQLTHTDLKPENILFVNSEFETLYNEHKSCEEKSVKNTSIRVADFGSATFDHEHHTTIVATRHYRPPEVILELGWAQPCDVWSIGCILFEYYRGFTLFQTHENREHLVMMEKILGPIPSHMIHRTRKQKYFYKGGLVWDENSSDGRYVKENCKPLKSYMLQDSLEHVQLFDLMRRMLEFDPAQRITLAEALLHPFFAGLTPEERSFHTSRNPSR
Test [4] has as its target Serine/threonine-protein kinase 32C (Homo sapiens) (UniProt Q86UX6). The test can be described thus: Selectivity interaction (KinomeScan (DiscoverX)) EUB0000229b STK32C. Conditions: at 10 µM.
Test [5] has as its target Calcium/calmodulin-dependent protein kinase type II subunit gamma (Homo sapiens) (UniProt Q13555). Kind of test: Selectivity interaction (KinomeScan (DiscoverX)) EUB0001619a CAMK2G. Conditions: at 1 µM.
In test [6] the target is Serine/threonine-protein kinase SIK2 (Homo sapiens) (UniProt Q9H0K1). The test can be described thus: Selectivity interaction (KinomeScan (DiscoverX)) EUB0001619a SIK2. Conditions: at 1 µM.
Chain of Serine/threonine-protein kinase SIK2 (Homo sapiens) (Q9H0K1 whole entry, looked up): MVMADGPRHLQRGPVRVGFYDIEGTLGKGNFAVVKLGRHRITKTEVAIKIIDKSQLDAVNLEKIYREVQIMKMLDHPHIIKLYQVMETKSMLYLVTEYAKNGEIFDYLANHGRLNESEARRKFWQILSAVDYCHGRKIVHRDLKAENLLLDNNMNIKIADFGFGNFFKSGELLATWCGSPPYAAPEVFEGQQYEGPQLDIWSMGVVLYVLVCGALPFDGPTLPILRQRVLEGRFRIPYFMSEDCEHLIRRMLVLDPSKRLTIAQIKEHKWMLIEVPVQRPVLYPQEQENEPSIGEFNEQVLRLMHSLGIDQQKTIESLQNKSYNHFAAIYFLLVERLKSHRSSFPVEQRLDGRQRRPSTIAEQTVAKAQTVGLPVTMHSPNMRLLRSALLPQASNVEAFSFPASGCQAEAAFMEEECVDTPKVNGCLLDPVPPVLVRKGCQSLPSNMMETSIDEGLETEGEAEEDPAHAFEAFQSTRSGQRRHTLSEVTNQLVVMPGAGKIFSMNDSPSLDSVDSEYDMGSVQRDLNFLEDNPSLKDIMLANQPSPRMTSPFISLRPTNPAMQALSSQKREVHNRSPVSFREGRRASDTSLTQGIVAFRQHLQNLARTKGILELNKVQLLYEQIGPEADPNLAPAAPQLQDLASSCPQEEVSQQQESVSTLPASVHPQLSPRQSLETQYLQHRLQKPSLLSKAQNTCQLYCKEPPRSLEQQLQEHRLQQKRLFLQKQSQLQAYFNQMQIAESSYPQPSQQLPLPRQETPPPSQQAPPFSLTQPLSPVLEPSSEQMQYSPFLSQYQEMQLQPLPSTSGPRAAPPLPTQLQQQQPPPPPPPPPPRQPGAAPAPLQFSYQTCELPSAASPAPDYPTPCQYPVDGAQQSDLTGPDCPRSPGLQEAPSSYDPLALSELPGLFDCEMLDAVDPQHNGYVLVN
Test [7] concerns the target T3, Serine/threonine-protein kinase ULK2 (Homo sapiens) (UniProt Q8IYT8).
T3 sequence (whole entry): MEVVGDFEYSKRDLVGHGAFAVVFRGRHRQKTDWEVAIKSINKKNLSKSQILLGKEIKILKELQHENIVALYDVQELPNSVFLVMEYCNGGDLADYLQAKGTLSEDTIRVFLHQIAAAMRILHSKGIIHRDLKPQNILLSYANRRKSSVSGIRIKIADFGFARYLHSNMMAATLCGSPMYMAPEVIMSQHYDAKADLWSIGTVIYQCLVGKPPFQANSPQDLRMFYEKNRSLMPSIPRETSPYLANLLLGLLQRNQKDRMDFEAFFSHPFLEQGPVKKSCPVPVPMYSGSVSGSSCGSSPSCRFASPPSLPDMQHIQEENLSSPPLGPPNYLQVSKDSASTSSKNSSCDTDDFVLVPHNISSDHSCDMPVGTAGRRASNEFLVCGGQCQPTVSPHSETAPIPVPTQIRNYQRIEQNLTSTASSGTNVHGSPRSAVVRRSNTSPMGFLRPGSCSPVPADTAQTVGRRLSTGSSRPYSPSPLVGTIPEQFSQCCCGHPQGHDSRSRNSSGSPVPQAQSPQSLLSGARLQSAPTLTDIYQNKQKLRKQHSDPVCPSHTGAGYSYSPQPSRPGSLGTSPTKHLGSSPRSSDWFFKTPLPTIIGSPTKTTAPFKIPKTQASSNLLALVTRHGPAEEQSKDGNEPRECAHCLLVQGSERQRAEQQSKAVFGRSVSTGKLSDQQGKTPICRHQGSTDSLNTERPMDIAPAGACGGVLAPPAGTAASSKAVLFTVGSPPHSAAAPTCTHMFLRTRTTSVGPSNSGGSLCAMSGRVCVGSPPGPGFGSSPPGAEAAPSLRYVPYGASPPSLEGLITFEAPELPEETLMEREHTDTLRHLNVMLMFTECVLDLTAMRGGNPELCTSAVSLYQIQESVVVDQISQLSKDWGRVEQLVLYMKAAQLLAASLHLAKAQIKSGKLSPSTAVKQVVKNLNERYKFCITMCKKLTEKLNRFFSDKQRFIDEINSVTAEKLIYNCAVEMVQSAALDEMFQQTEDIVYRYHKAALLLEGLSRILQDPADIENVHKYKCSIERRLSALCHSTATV
Kind of test: Selectivity interaction (KinomeScan (DiscoverX)) EUB0000618a ULK2. Conditions: at 10 µM.

Chain of Calcium/calmodulin-dependent protein kinase type II subunit gamma (Homo sapiens) (Q13555 whole entry): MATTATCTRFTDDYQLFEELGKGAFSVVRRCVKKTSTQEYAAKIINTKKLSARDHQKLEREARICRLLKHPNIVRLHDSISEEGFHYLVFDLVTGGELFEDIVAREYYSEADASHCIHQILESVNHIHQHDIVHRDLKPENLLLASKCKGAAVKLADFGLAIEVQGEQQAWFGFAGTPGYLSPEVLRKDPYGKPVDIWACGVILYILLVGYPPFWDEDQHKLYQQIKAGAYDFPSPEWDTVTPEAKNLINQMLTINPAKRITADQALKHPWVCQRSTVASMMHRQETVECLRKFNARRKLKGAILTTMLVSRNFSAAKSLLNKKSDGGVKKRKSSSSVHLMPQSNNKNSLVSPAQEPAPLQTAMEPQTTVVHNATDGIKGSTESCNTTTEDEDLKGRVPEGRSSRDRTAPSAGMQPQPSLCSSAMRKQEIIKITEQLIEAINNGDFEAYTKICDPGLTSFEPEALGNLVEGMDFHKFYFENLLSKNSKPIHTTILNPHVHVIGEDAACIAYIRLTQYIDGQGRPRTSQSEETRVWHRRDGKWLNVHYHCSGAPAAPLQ
Chain of Serine/threonine-protein kinase 32C (Homo sapiens) (Q86UX6 whole entry): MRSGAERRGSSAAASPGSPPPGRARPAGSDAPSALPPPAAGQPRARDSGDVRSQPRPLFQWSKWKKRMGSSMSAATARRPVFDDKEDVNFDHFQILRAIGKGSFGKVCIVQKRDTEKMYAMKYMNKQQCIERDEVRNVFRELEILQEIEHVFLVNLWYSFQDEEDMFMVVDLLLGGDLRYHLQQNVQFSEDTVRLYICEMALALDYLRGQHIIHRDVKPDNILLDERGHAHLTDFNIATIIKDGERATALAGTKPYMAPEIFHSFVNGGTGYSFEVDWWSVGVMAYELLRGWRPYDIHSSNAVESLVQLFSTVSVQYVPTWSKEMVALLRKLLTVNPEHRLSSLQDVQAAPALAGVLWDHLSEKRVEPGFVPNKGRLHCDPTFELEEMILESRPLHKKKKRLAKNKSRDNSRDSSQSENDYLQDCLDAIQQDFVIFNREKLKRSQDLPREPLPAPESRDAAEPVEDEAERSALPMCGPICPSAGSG

Regarding `Cn1cc(-n2cnc3c(NCc4nc5cc(Cl)c(Cl)cc5[nH]4)nc(N4CCOCC4)nc32)cn1`, in test [1], the % of control was 2.3%. For the molecule `CC[C@@H]1[C@H](F)C(=O)N[C@@H]1COc1nccc2cc(C(N)=O)c(OC)cc12` [ZIMLOVISERTIB], in test [2], the % of inhibition is -1%. As to `COc1cc(N(C)c2ccnc3ccc(C(F)(F)F)cc23)cc(OC)c1OC`, the % binding in test [3] stood at 59%; in test [4], 99%.

Turning to `N#Cc1cccc(-c2c[nH]c3ncnc(N4CCOCC4)c23)c1`, the % of control in test [5] is 100%; in test [6], 32%. `O[C@H]1CC[C@H](Nc2ncc3nc(Nc4c(F)cc(F)cc4F)n([C@H]4CCOC4)c3n2)CC1`: the % of control in test [7] came out at 89%.
